Tests used:
Experiment in all cases: relative viability (nuclei count vs DMSO), 5 days (fraction); higher = more cells survive
[1] = compound: O=C(c1cc(Cc2n[nH]c(=O)c3ccccc23)ccc1F)N1CCN(C(=O)C2CC2)CC1 [Olaparib] + Nc1ncn([C@H]2C[C@H](O)[C@@H](CO)O2)c(=O)n1 [Decitabine] (partner 2 µM)
In short: (§1)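 Lung cancer cell lines were seeded in 1536-well plates and dosed by pin tool the next day, with either a single drug or a fixed anchor-drug dose combined with five library-drug doses (not always all listed) spaced in √10 steps. Five days later, one step fixed the cells and stained their nuclei (final 0.05% Triton X-100, 1% formaldehyde, 1 ug/ml Hoechst), and nuclei were counted on 4× images. Relative viability is the nuclei count in treated wells divided by the count in vehicle wells, and each value is the median of duplicate plates.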

[2] = compound: CC(C)C[C@H](NC(=O)[C@H](CCc1ccccc1)NC(=O)CN1CCOCC1)C(=O)N[C@@H](Cc1ccccc1)C(=O)N[C@@H](CC(C)C)C(=O)[C@@]1(C)CO1 [Carfilzomib] + CC1(C)CCC(c2ccc(Cl)cc2)=C(CN2CCN(c3ccc(C(=O)NS(=O)(=O)c4ccc(N[C@H](CCN5CCOCC5)CSc5ccccc5)c(S(=O)(=O)C(F)(F)F)c4)cc3)CC2)C1 [Navitoclax] (partner 0.5 µM)
In short: as §1

[3] = compound: O=C(c1cc(Cc2n[nH]c(=O)c3ccccc23)ccc1F)N1CCN(C(=O)C2CC2)CC1 [Olaparib] + CC(C)C[C@H](NC(=O)[C@H](Cc1ccccc1)NC(=O)c1cnccn1)B(O)O [Bortezomib] (partner 0.002 µM)
In short: as §1

[4] = compound: CC(C)C[C@H](NC(=O)[C@H](CCc1ccccc1)NC(=O)CN1CCOCC1)C(=O)N[C@@H](Cc1ccccc1)C(=O)N[C@@H](CC(C)C)C(=O)[C@@]1(C)CO1 [Carfilzomib] + N=C(N)NC(=N)NCCc1ccccc1 [Phenformin] (partner 250 µM)
In short: as §1

| Cell Line | relative viability ([1]; first compound 0.08 µM) | relative viability ([1]; first compound 0.253 µM) | relative viability ([1]; first compound 2.53 µM) | relative viability ([1]; first compound 8 µM) | relative viability ([2]; first compound 0.001 µM) | relative viability ([2]; first compound 0.003162 µM) | relative viability ([2]; first compound 0.01 µM) | relative viability ([2]; first compound 0.03162 µM) | relative viability ([2]; first compound 0.1 µM) | relative viability ([3]; first compound 0.08 µM) | relative viability ([3]; first compound 0.253 µM) | relative viability ([3]; first compound 2.53 µM) | relative viability ([3]; first compound 8 µM) | relative viability ([4]; first compound 0.001 µM) | relative viability ([4]; first compound 0.003162 µM) | relative viability ([4]; first compound 0.01 µM) | relative viability ([4]; first compound 0.03162 µM) | relative viability ([4]; first compound 0.1 µM) |
| --- | --- | --- | --- | --- | --- | --- | --- | --- | --- | --- | --- | --- | --- | --- | --- | --- | --- | --- |
| 201T | 0.819 | 0.68 | 0.611 | 0.632 | 1.14 | 1.23 | 1.22 | 1.23 | 1.18 | 1.19 | 1.03 | 1.11 | 1.07 | 0.404 | 0.482 | 0.483 | 0.464 | 0.328 |
| A549 | 0.119 | 0.073 | 0.0622 | 0.0462 | 1.17 | 1.21 | 1.24 | 0.0372 | 0.0397 |  |  |  |  | 0.0885 | 0.231 | 0.113 | 0.0362 | 0.0257 |
| A-427 | 0.471 | 0.478 | 0.483 | 0.404 | 0.954 | 1.01 | 1.04 | 0.644 | 0.113 | 1.03 | 0.96 | 0.877 | 0.673 | 0.25 | 0.464 | 0.381 | 0.116 | 0.133 |
| ABC-1 | 1.07 |  | 0.836 | 0.718 |  |  |  |  |  | 0.308 | 0.332 | 0.323 | 0.33 | 0.235 | 0.25 | 0.236 | 0.229 | 0.185 |
| BEN | 0.654 | 0.55 | 0.639 | 0.641 | 0.0574 | 0.0653 | 0.0797 | 0.0533 | 0.047 | 0.651 | 0.632 | 0.881 | 0.829 | 0.319 | 0.318 | 0.346 | 0.251 | 0.182 |
| CAL-12T |  |  |  |  |  | 0.996 | 1.22 | 0.822 | 0.104 | 1.16 | 0.842 | 1.04 | 1.03 | 0.61 | 0.668 | 0.591 | 0.101 | 0.114 |
| COR-L23 | 0.353 | 0.266 | 0.216 | 0.199 | 1.1 | 1.14 | 0.724 | 0.0667 | 0.0704 | 1.06 | 0.862 | 0.92 | 0.474 | 0.442 | 0.435 | 0.404 | 0.0562 | 0.0638 |
| COR-L 105 | 0.581 | 0.618 | 0.52 | 0.512 | 0.885 | 0.628 | 0.643 | 0.353 | 0.298 | 0.936 | 0.85 | 0.464 | 0.426 | 0.572 | 0.391 | 0.526 | 0.261 | 0.203 |
| Calu-6 |  |  |  |  | 0.885 | 0.997 | 0.561 | 0.0829 | 0.0768 | 1.13 | 0.959 | 0.796 | 0.777 |  |  |  |  |  |
| ChaGo-K-1 | 0.45 | 0.43 | 0.355 | 0.329 |  | 1.58 | 1.01 | 0.693 | 0.385 | 1.27 | 0.96 | 1.02 | 0.845 | 0.438 | 0.524 | 0.501 | 0.442 | 0.14 |
| EBC-1 |  |  |  |  | 0.415 | 0.288 | 0.184 | 0.13 | 0.139 | 0.654 | 0.541 | 0.523 | 0.472 |  |  |  |  |  |
| EKVX | 0.238 | 0.276 | 0.337 | 0.276 | 0.992 | 1 | 1.21 | 0.427 | 0.346 | 1.42 | 0.987 | 0.995 | 0.994 | 0.204 | 0.24 | 0.257 | 0.114 | 0.221 |
| EMC-BAC-2 | 0.931 | 0.869 | 0.669 | 0.599 | 1.15 | 1.21 | 1.22 | 1.12 | 0.527 | 1.09 | 1.04 | 1.07 | 0.967 | 0.52 | 0.62 | 0.572 | 0.376 | 0.199 |
| EPLC-272H | 0.478 | 0.349 | 0.302 | 0.329 | 1.07 | 1.15 | 0.839 | 0.09 | 0.0751 | 1.1 | 0.819 | 0.965 | 0.848 | 0.269 | 0.314 | 0.307 | 0.124 | 0.038 |
| H3255 | 0.548 | 0.516 | 0.621 | 0.444 | 0.676 | 0.63 | 0.663 | 0.37 | 0.151 | 0.935 | 0.728 | 0.703 | 0.728 | 0.395 | 0.364 | 0.441 | 0.354 | 0.321 |
| HARA | 0.437 | 0.397 | 0.396 | 0.338 | 1.1 | 1.14 | 1.21 | 0.0941 | 0.0841 | 1.25 | 1.04 | 1.06 | 0.769 | 0.478 | 0.506 | 0.403 | 0.0435 | 0.0629 |
| HCC-15 | 0.682 | 0.479 | 0.463 | 0.344 | 0.667 | 0.728 | 0.762 | 0.423 | 0.148 | 1.18 | 0.984 | 1.03 | 0.9 | 0.443 | 0.538 | 0.48 | 0.222 | 0.1 |
